Assay results taken from patent publication US12472168B2, “Ring-fused thiazolino 2-pyridones, methods for preparation thereof and their use in the treatment and/or prevention of a disease involving gram-positive bacteria” (Quretech Bio AB, priority 2017, dated 2025).
Converted amounts (≈) assume the structure as drawn. Structures can show the parent of a compound that is named as a salt. Where two headings read alike, the source gives them in different places.

Legend:
MRSA = test: Minimum Inhibitory Concentration (MIC) and Minimum Bactericidal Concentration (MBC) assays; type: cell-based, Methicillin-resistant Staphylococcus aureus; settings: compound alone, no antibiotic; for MIC: overnight (18 hrs)
Experimental: (§1) MIC was defined by the lowest concentration of the test compound that inhibits visible growth of pathogen of interest. The optical density of the pathogen of interest culture was measured by OD600.
(§2) MBC was determined colony forming units (CFUs) enumeration by serially diluting and plating bacterial cultures on BHI plates.
(§3) Thus, no antibiotic was used in Table 2.

Strep. pyogenes = test: MIC and MBC assays; type: cell-based; settings: Streptococcus pyogenes, compound alone, no antibiotic
Experimental: (§4) […]. MIC was defined by the lowest concentration of the test compound that inhibits visible growth of pathogen of interest. The optical density of the pathogen of interest culture was measured by OD600.
(§5) […]. MBC was determined colony forming units (CFUs) enumeration by serially diluting and plating bacterial cultures on BHI plates.
(§6) . Thus, no antibiotic was used in Table 2.

Staph. aureus = test: MIC and MBC assays; type: cell-based; settings: Staphylococcus aureus, compound alone, no antibiotic; for MIC: overnight (18 hrs)
Experimental: as §4, §5, §6

Streptococcus = test: MIC and MBC assays; type: cell-based; settings: compound alone, no antibiotic
Experimental: as §1, §2, §3

E. faecalis = test: MIC and MBC assays; type: cell-based; settings: Enterococcus faecalis, compound alone, no antibiotic; for MIC: overnight (18 hrs)
Experimental: as §1, §2, §3

[1] = Staphylococcus aureus, 18 h, read-out: MIC

| SMILES | MIC (E. faecalis) [µM] | MIC (MRSA; [1]) [µM] | MBC (MRSA; Staphylococcus aureus) [µM] | further results |
| --- | --- | --- | --- | --- |
| O=C(O)c1c(-c2ccccc2)sc2c(C3CC3)c(Cc3cccc4ccccc34)cc(=O)n12 [Example 29, 5-Cyclopropyl-4-[(1-naphthyl)methyl]-2-oxo-8-phenyl-7-thia-1-azabicyclo[4.3.0]nona-3,5,8-triene-9-carboxylic acid] |  | 250 (≈ 113 µg/mL) | 200 (≈ 90.3 µg/mL) | MBC (Strep. pyogenes): 25 µM (≈ 11.3 µg/mL); MIC (Strep. pyogenes; overnight (18 hrs)): 25 µM (≈ 11.3 µg/mL); MBC (Staph. aureus): 200 µM (≈ 90.3 µg/mL); MIC (Staph. aureus): 100 µM (≈ 45.2 µg/mL) |
| O=C(O)c1c(-c2ccsc2)sc2c(C3CC3)c(Cc3cccc4ccccc34)cc(=O)n12 [Example 34, 5-Cyclopropyl-4-[(1-naphthyl)methyl]-2-oxo-8-(3-thienyl)-7-thia-1-azabicyclo[4.3.0]nona-3,5,8-triene-9-carboxylic acid] |  |  | 250 (≈ 114 µg/mL) | MBC (Strep. pyogenes): 25 µM (≈ 11.4 µg/mL); MBC (Staph. aureus): 400 µM (≈ 183 µg/mL) |
| COc1ccc(-c2sc3c(C4CC4)c(Cc4cccc5ccccc45)cc(=O)n3c2C(=O)O)cc1C [Example 4, 5-Cyclopropyl-8-(4-methoxy-3-methyl-phenyl)-4-[(1-naphthyl)methyl]-2-oxo-7-thia-1-azabicyclo[4.3.0]nona-3,5,8-triene-9-carboxylic acid] | 250 (≈ 124 µg/mL) | 200 (≈ 99.1 µg/mL) |  | MBC (Streptococcus): 9 µM (≈ 4.46 µg/mL) |
| Cc1ccc(-c2sc3c(C4CC4)c(Cc4cccc5ccccc45)cc(=O)n3c2C(=O)O)cc1 [Example 31, 5-Cyclopropyl-4-[(1-naphthyl)methyl]-2-oxo-8-(p-tolyl)-7-thia-1-azabicyclo[4.3.0]nona-3,5,8-triene-9-carboxylic acid] |  | 50 (≈ 23.3 µg/mL) | 100 (≈ 46.6 µg/mL) | MBC (Strep. pyogenes): 50 µM (≈ 23.3 µg/mL); MBC (Staph. aureus): 100 µM (≈ 46.6 µg/mL); MIC (Staph. aureus): 50 µM (≈ 23.3 µg/mL) |
| CCCCCCn1cc(-c2sc3c(OC)c(Cc4cccc5ccccc45)cc(=O)n3c2C(=O)O)nn1 [Example 15, 8-(1-Hexyl-1H-1,2,3-triazol-4-yl)-5-methoxy-4-[(1-naphthyl)methyl]-2-oxo-7-thia-1-azabicyclo[4.3.0]nona-3,5,8-triene-9-carboxylic acid] |  | 100 (≈ 51.7 µg/mL) |  |  |
| COCCOc1ccc(-c2sc3c(OC)c(Cc4cccc5ccccc45)cc(=O)n3c2C(=O)O)cc1C [Example 17, 5-Methoxy-8-[4-(2-methoxyethoxy)-3-methyl-phenyl]-4-[(1-naphthyl)methyl]-2-oxo-7-thia-1-azabicyclo[4.3.0]nona-3,5,8-triene-9-carboxylic acid] |  | > 25 |  |  |
| O=C(O)c1c(-c2ccoc2)sc2c(C3CC3)c(Cc3cccc4ccccc34)cc(=O)n12 [Example 36, 5-Cyclopropyl-8-(3-furyl)-4-[(1-naphthyl)methyl]-2-oxo-7-thia-1-azabicyclo[4.3.0]nona-3,5,8-triene-9-carboxylic acid] |  |  |  | MBC (Strep. pyogenes): 25 µM (≈ 11 µg/mL) |
| COCCOc1ccc(-c2sc3c(C4CC4)c(Cc4cccc5ccccc45)cc(=O)n3c2C(=O)O)cc1C [Example 18, 5-Cyclopropyl-8-[4-(2-methoxyethoxy)-3-methyl-phenyl]-4-[(1-naphthyl)methyl]-2-oxo-7-thia-1-azabicyclo[4.3.0]nona-3,5,8-triene-9-carboxylic acid] |  | > 25 |  |  |
| CCCCCCCOc1ccc(-c2sc3c(C4CC4)c(Cc4cccc5ccccc45)cc(=O)n3c2C(=O)O)cc1C [Example 3, 5-Cyclopropyl-8-[4-(heptyloxy)-3-methyl-phenyl] 4-[(1-naphthyl)methyl]-2-oxo-7-thia-1-azabicyclo[4.3.0]nona-3,5,8-triene-9-carboxylic acid] | 183 (≈ 106 µg/mL) | 167 (≈ 96.8 µg/mL) |  | MBC (Streptococcus): 50 µM (≈ 29 µg/mL); MBC (E. faecalis): 100 µM (≈ 58 µg/mL) |
| CCCCCCn1cc(-c2sc3c(OC)c(Cc4cccc5ccccc45)cc(=O)n3c2C(=O)O)nn1 [Example 16, 8-(1-Hexyl-1H-1,2,3-triazol-4-yl)-5-methoxy-4-[(1-naphthyl)methyl]-2-oxo-7-thia-1-azabicyclo[4.3.0]nona-3,5,8-triene-9-carboxylic acid imidazole salt] |  |  |  | MIC (MRSA): 200/nd uM |
| CCCCOc1ccc(-c2sc3c(C4CC4)c(Cc4cccc5ccccc45)cc(=O)n3c2C(=O)O)cc1C [Example 7, 8-(4-Butoxy-3-methyl-phenyl)-5-cyclopropyl-4-[(1-naphthyl)methyl]-2-oxo-7-thia-1-azabicyclo[4.3.0]nona-3,5,8-triene-9-carboxylic acid] | 95 (≈ 51.1 µg/mL) | 25 (≈ 13.4 µg/mL) | 32 (≈ 17.2 µg/mL) | MBC (Streptococcus): 7 µM (≈ 3.76 µg/mL); MBC (E. faecalis): 19 µM (≈ 10.2 µg/mL) |
| CCCOc1ccc(-c2sc3c(C4CC4)c(Cc4cccc5ccccc45)cc(=O)n3c2C(=O)O)cc1C [Example 2, 5-Cyclopropyl-4-[(1-naphthyl)methyl]-2-oxo-8-(4-propoxy-3-methyl-phenyl)-7-thia-1-azabicyclo[4.3.0]nona-3,5,8-triene-9-carboxylic acid] | 250 (≈ 131 µg/mL) | 27 (≈ 14.1 µg/mL) | ≥ 50 | MBC (Streptococcus): 5 µM (≈ 2.62 µg/mL) |
| O=C(O)c1c(-c2ccco2)sc2c(C3CC3)c(Cc3cccc4ccccc34)cc(=O)n12 [Example 35, 5-Cyclopropyl-8-(2-furyl)-4-[(1-naphthyl)methyl]-2-oxo-7-thia-1-azabicyclo[4.3.0]nona-3,5,8-triene-9-carboxylic acid] |  |  |  | MBC (Strep. pyogenes): 50 µM (≈ 22.1 µg/mL) |
| O=C(O)c1c(-c2ccc3[nH]ccc3c2)sc2c(C3CC3)c(Cc3cccc4ccccc34)cc(=O)n12 [Example 32, 5-Cyclopropyl-8-(1H-indol-5-yl)-4-[(1-naphthyl)methyl]-2-oxo-7-thia-1-azabicyclo[4.3.0]nona-3,5,8-triene-9-carboxylic acid] |  | 200 (≈ 98.1 µg/mL) | > 400 | MBC (E. faecalis): > 400 µM; MBC (Strep. pyogenes): 50 µM (≈ 24.5 µg/mL) |
| CCCCCCOc1ccc(-c2sc3c(N)c(Cc4cccc5ccccc45)cc(=O)n3c2C(=O)O)cc1C [Example 27, 5-Amino-8-[4-(hexyloxy)-3-methyl-phenyl]-4-[(1-naphthyl)methyl]-2-oxo-7-thia-1-azabicyclo[4.3.0]nona-3,5,8-triene-9-carboxylic acid] |  | 25 (≈ 13.5 µg/mL) |  |  |

Continued, in another order:

| MIC (E. faecalis) [µM] | SMILES | MIC (MRSA; [1]) [µM] | MBC (MRSA; Staphylococcus aureus) [µM] | further results |
| --- | --- | --- | --- | --- |
| > 100 | C#CCCCCOc1ccc(-c2sc3c(OC)c(Cc4cccc5ccccc45)cc(=O)n3c2C(=O)O)cc1C [Example 22, 8-[4-(5-Hexynyloxy)-3-methyl-phenyl]-5-methoxy-4-[(1-naphthyl)methyl]-2-oxo-7-thia-1-azabicyclo[4.3.0]nona-3,5,8-triene-9-carboxylic acid] | 6 (≈ 3.31 µg/mL) |  |  |
| > 100 | C=CCCCCOc1ccc(-c2sc3c(OC)c(Cc4cccc5ccccc45)cc(=O)n3c2C(=O)O)cc1C [Example 25, 8-[4-(5-Hexenyloxy)-3-methyl-phenyl]-5-methoxy-4-[(1-naphthyl)methyl]-2-oxo-7-thia-1-azabicyclo[4.3.0]nona-3,5,8-triene-9-carboxylic acid] | 45 (≈ 24.9 µg/mL) |  |  |
| 200 (≈ 110 µg/mL) | CCCCCOc1ccc(-c2sc3c(C4CC4)c(Cc4cccc5ccccc45)cc(=O)n3c2C(=O)O)cc1C [Example 6, 5-Cyclopropyl-4-[(1-naphthyl)methyl]-2-oxo-8-[4-(pentyloxy)-3-methyl-phenyl]-7-thia-1-azabicyclo[4.3.0]nona-3,5,8-triene-9-carboxylic acid] | 69 (≈ 38.1 µg/mL) | 37 (≈ 20.4 µg/mL) | MBC (Streptococcus): 23 µM (≈ 12.7 µg/mL); MBC (E. faecalis): 100 µM (≈ 55.2 µg/mL) |
| > 400 | O=C(O)c1c(-c2ccc3c(c2)OCCO3)sc2c(C3CC3)c(Cc3cccc4ccccc34)cc(=O)n12 [Example 33, 5-Cyclopropyl-8-(1,4-dioxa-2,3-dihydronaphth-6-yl)-4-[(1-naphthyl)methyl]-2-oxo-7-thia-1-azabicyclo[4.3.0]nona-3,5,8-triene-9-carboxylic acid] |  |  | MBC (Strep. pyogenes): 20 µM (≈ 10.2 µg/mL); MBC (Staph. aureus): 400 µM (≈ 204 µg/mL) |
| > 100 | COc1c(Cc2cccc3ccccc23)cc(=O)n2c(C(=O)O)c(-c3ccc(OCC4CC4)c(C)c3)sc12 [Example 26, 8-[4-(Cyclopropylmethoxy)-3-methyl-phenyl]-5-methoxy-4-[(1-naphthyl)methyl]-2-oxo-7-thia-1-azabicyclo[4.3.0]nona-3,5,8-triene-9-carboxylic acid] | 12 (≈ 6.31 µg/mL) |  |  |
| 250 (≈ 127 µg/mL) | CCOc1ccc(-c2sc3c(C4CC4)c(Cc4cccc5ccccc45)cc(=O)n3c2C(=O)O)cc1C [Example 5, 5-Cyclopropyl-8-(4-ethoxy-3-methyl-phenyl)-4-[(1-naphthyl)methyl]-2-oxo-7-thia-1-azabicyclo[4.3.0]nona-3,5,8-triene-9-carboxylic acid] | 150 (≈ 76.4 µg/mL) |  | MBC (Streptococcus): 10 µM (≈ 5.1 µg/mL) |
| > 100 | COc1c(Cc2cccc3ccccc23)cc(=O)n2c(C(=O)O)c(-c3ccc(OCCC=C(C)C)c(C)c3)sc12 [Example 24, 5-Methoxy-8-[4-(4-methyl-3-pentenyloxy)-3-methyl-phenyl]-4-[(1-naphthyl)methyl]-2-oxo-7-thia-1-azabicyclo[4.3.0]nona-3,5,8-triene-9-carboxylic acid] | 45 (≈ 24.9 µg/mL) |  |  |
| 300 (≈ 161 µg/mL) | CCCCCOc1ccc(-c2sc3c(C4CC4)c(Cc4cccc5ccccc45)cc(=O)n3c2C(=O)O)cc1 [Example 12, 5-Cyclopropyl-4-[(1-naphthyl)methyl]-2-oxo-8-[p-(pentyloxy)phenyl]-7-thia-1-azabicyclo[4.3.0]nona-3,5,8-triene-9-carboxylic acid] | 70 (≈ 37.6 µg/mL) | 25 (≈ 13.4 µg/mL) | MBC (Streptococcus): 2 µM (≈ 1.08 µg/mL) |
| > 100 | C=CCOc1ccc(-c2sc3c(OC)c(Cc4cccc5ccccc45)cc(=O)n3c2C(=O)O)cc1C [Example 21, 8-[4-(Allyloxy)-3-methyl-phenyl]-5-methoxy-4-[(1-naphthyl)methyl]-2-oxo-7-thia-1-azabicyclo[4.3.0]nona-3,5,8-triene-9-carboxylic acid] | 19 (≈ 9.72 µg/mL) |  |  |
